Data taken from US12077503B2, “Substituted cyclic amides and their use as herbicides” (FMC CORPORATION, priority 2015, dated 2024).

Tests used:
Assay type in all cases: in vivo
[1] = test system: blackgrass (Alopecurus myosuroides); assay: Test A postemergence
Procedure, shortened: (§1)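 In a loam soil and sand blend, planted seeds got a preemergence directed soil spray, and young plants at the one- to two-leaf stage, 2–10 cm high, got a postemergence application; ~10 d greenhouse hold; injury rated visually, 0 = none, 100 = complete control.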

[2] = test system: ryegrass, Italian (Italian ryegrass, Lolium multiflorum); assay: Test A postemergence
Procedure, shortened: as §1

[3] = test system: ragweed (common ragweed, Ambrosia elatior); assay: Test A postemergence
Procedure, shortened: as §1

[4] = test system: pigweed (Amaranthus retroflexus); assay: Test A postemergence
Procedure, shortened: as §1

[5] = test system: giant foxtail (Setaria faberii); assay: Test A postemergence
Procedure, shortened: as §1

[6] = test system: Galium (catchweed bedstraw, Galium aparine); assay: Test A postemergence
Procedure, shortened: as §1

[7] = test system: wheat (Triticum aestivum); assay: Test A postemergence
Procedure, shortened: as §1

Kochia (Kochia scoparia) [8] = assay: Test A postemergence
Procedure, shortened: as §1

[9] = test system: barnyardgrass (Echinochloa crus-galli); assay: Test A postemergence
Procedure, shortened: as §1

corn (Zea mays) = assay: Test A postemergence
Procedure, shortened: as §1

[10] = test system: ducksalad (Heteranthera limosa); assay: Test B flooded paddy test; details: 250 g ai/ha, Flood; 0 to 100 scale where 0 is no effect and 100 is complete control
Procedure, shortened: (§2)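 Plants at 2-leaf stage flooded to 3 cm above soil, with compounds applied directly to paddy water and that depth maintained. Plants kept in greenhouse 13–15 d. Visual rating versus controls on a 0 (no effect) to 100 (complete control) scale.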

rice (Oryra sativa) = assay: Test B flooded paddy test; details: Oryza sativa, 250 g ai/ha, Flood; 0 to 100 scale where 0 is no effect and 100 is complete control; read-out: Rice plant response rating
Procedure, shortened: as §2

[11] = test system: sedge, umbrella (small-flower umbrella sedge, Cyperus difformis); assay: Test B flooded paddy test; details: Cyperus difformis, 250 g ai/ha, Flood; 0 to 100 scale where 0 is no effect and 100 is complete control; read-out: Sedge, Umbrella plant response rating
Procedure, shortened: as §2

[12] = test system: barnyardgrass (Echinochloa crus-galli); assay: Test B flooded paddy test; details: 250 g ai/ha, Flood; 0 to 100 scale where 0 is no effect and 100 is complete control
Procedure, shortened: as §2

[13] = test system: ryegrass, Italian (Italian ryegrass, Lolium multiflorum); assay: Test A preemergence
Procedure, shortened: as §1

[14] = test system: ragweed (common ragweed, Ambrosia elatior); assay: Test A preemergence
Procedure, shortened: as §1

[15] = test system: pigweed (Amaranthus retroflexus); assay: Test A preemergence
[16] = test system: giant foxtail (Setaria faberii); assay: Test A preemergence; details: Setaria faberi, pre-emergence, 240 h
Procedure, shortened: as §1

Kochia (Kochia scoparia) [17] = assay: Test A preemergence
Procedure, shortened: as §1

[18] = test system: barnyardgrass (Echinochloa crus-galli); assay: Test A preemergence; details: Echinochloa crus-galli, pre-emergence, 240 h
Procedure, shortened: as §1

[19] = 500 g ai/ha, postemergence, visual injury, 0 to 100 scale (0 no effect, 100 complete control), approx. 10 d
[20] = 125 g ai/ha, Postemergence, visual injury after approximately 10 d, 0 to 100 scale where 0 is no effect and 100 is complete control
[21] = 500 g ai/ha, preemergence, visual injury rating about 10 d after treatment, 0 to 100 scale (0 no effect, 100 complete control)

Cc1ccc([C@H]2CN(C)C(=O)[C@@H]2C(=O)Nc2ccccc2[S+](C)[O-])cc1Cl (single isomer, unassigned) [Compound 1016]
Plant response rating, Blackgrass [1, 19]: 0
pest or weed control at 125 g/ha ([1]; Alopecurus myosuroides, post-emergence, 240 h, 125 g ai/ha, Postemergence, visual injury after approximately 10 d, 0 to 100 scale where 0 is no effect and 100 is complete control, read-out: Plant response rating, Blackgrass): 0%
Plant response rating, Ryegrass, Italian [2, 20]: 0
Plant response rating, Ryegrass, Italian [2, 19]: 0
Plant response rating, Ragweed [3, 19]: 0
pest or weed control at 125 g/ha ([3]; Ambrosia artemisiifolia, post-emergence, 240 h, 125 g ai/ha, Postemergence, visual injury after approximately 10 d, 0 to 100 scale where 0 is no effect and 100 is complete control, read-out: Plant response rating, Ragweed): 0%
Plant response rating, Pigweed [4, 19]: 0
pest or weed control at 125 g/ha ([4]; Amaranthus retroflexus, post-emergence, 240 h, 125 g ai/ha, Postemergence, visual injury after approximately 10 d, 0 to 100 scale where 0 is no effect and 100 is complete control, read-out: Plant response rating, Pigweed): 0%
Plant response rating, Foxtail, Giant [5, 20]: 30
pest or weed control at 500 g/ha ([5]; Setaria faberi, post-emergence, 240 h, 500 g ai/ha, postemergence, visual injury, 0 to 100 scale (0 no effect, 100 complete control), approx. 10 d, read-out: Plant response rating, Foxtail, Giant): 80%
Plant response rating, Galium [6, 20]: 0
Plant response rating, Galium [6, 19]: 0
Plant response rating, Wheat [7, 20]: 0
Plant response rating, Wheat [7, 19]: 0
Plant response rating, Kochia (Kochia (Kochia scoparia) [8]; [20]): 0
Plant response rating, Kochia (Kochia (Kochia scoparia) [8]; [19]): 0
Plant response rating, Barnyardgrass [9, 20]: 50
pest or weed control at 500 g/ha ([9]; Echinochloa crus-galli, post-emergence, 240 h, 500 g ai/ha, postemergence, visual injury, 0 to 100 scale (0 no effect, 100 complete control), approx. 10 d, read-out: Plant response rating, Barnyardgrass): 90%
Plant response rating, Corn (corn (Zea mays); [20]): 0
Plant response rating, Corn (corn (Zea mays); [19]): 0
Ducksalad plant response rating [10]: 0
pest or weed control at 250 g/ha (rice (Oryra sativa)): 30%
pest or weed control at 250 g/ha [11]: 0%
Barnyardgrass plant response rating [12]: 0
Ryegrass, Italian plant response rating [13, 21]: 0
pest or weed control at 125 g/ha ([13]; Lolium multiflorum, pre-emergence, 240 h, 125 g ai/ha, Preemergence, visual injury rating after approximately 10 d, read-out: Ryegrass, Italian plant response rating (0 to 100 scale, 0 is no effect, 100 is complete control)): 0%
Ragweed plant response rating [14, 21]: 0
pest or weed control at 125 g/ha ([14]; Ambrosia artemisiifolia, pre-emergence, 240 h, 125 g ai/ha, Preemergence, visual injury rating after approximately 10 d, read-out: Ragweed plant response rating (0 to 100 scale, 0 is no effect, 100 is complete control)): 0%
Pigweed plant response rating (0 to 100 scale, 0 is no effect, 100 is complete control) ([15]; 125 g ai/ha, Preemergence, visual injury rating after approximately 10 d): 0
Pigweed plant response rating [15, 21]: 0
pest or weed control at 125 g/ha ([16]; 125 g ai/ha, Preemergence, visual injury rating after approximately 10 d, read-out: Foxtail, Giant plant response rating (0 to 100 scale, 0 is no effect, 100 is complete control)): 90%
pest or weed control at 500 g/ha ([16]; 500 g ai/ha, preemergence, visual injury rating about 10 d after treatment, 0 to 100 scale (0 no effect, 100 complete control), read-out: Foxtail, Giant plant response rating): 90%
Kochia plant response rating (Kochia (Kochia scoparia) [17]; [21]): 0
pest or weed control at 125 g/ha (Kochia (Kochia scoparia) [17]; Bassia scoparia, pre-emergence, 240 h, 125 g ai/ha, Preemergence, visual injury rating after approximately 10 d, read-out: Kochia plant response rating (0 to 100 scale, 0 is no effect, 100 is complete control)): 0%
pest or weed control at 125 g/ha ([18]; 125 g ai/ha, Preemergence, visual injury rating after approximately 10 d, read-out: Barnyardgrass plant response rating (0 to 100 scale, 0 is no effect, 100 is complete control)): 90%
pest or weed control at 500 g/ha ([18]; 500 g ai/ha, preemergence, visual injury rating about 10 d after treatment, 0 to 100 scale (0 no effect, 100 complete control), read-out: Barnyardgrass plant response rating): 90%
